Test results taken from patent US20110091931A1, “Methods and Kits for Determining Oxygen Free Radical (OFR) Levels in Animal and Human Tissues as a Prognostic Marker for Cancer and Other Pathophysiologies” (COLBY PHARMACEUTICAL COMPANY, priority 2009, published 2011).
Where two headings read alike, the source gives them in different places.

How the values were obtained:
SSAT = SSAT mRNA level by qRT-PCR in LNCaP cells; type: cell-based, human
Protocol: Each data point was an average of readings from six identically treated LNCaP prostate cancer cell sample wells with readings repeated twice in triplicate sets.
In order to confirm that SSAT was the major source of androgen induced oxidative stress, we developed and used a stable LNCaP cell clone transfected with plasmid transcribing siRNA designed to silence SSAT mRNA expression. The SSAT mRNA level in these cells was determined by qRT-PCR method. […] The ratio of DCF fluorescence (green):DNA fluorescence (blue) for each of the treated well of a 96 well plate normalized to that of the average of control untreated wells represents the ROS level per cell relative to that in control untreated cells. The data points are the mean of numbers obtained from repeat experiments using thirty identically treated wells.

[1] = system: SSAT (spermidine/spermine acetyl transferase) gene; assay: DNA microarray analysis of gene expression (Affymetrix Gene chip Array) in LNCaP cells; type: cell-based, human; conditions: 1 nM R1881, 96 h vs untreated
Protocol: SSAT induction is a mechanism of ROS production in CaP cells. In our search for the biochemical mechanism and convenient diagnostic monitoring of androgen-induced ROS production in prostate cells, a DNA microarray analysis of gene expression was also performed using the Affymetrix Gene chip Array We used untreated androgen dependent LNCaP cells and cells treated with 1 nM androgen […] (a well-accepted androgen analog routinely used due to its stability) for 96 h for these studies. […] We noted with considerable interest that among the list of genes that are overexpressed by more than an order of magnitude after androgen-treatment, SSAT is the only enzyme that is directly related to a ROS-generating biochemical pathway.

[2] = system: LNCaP human prostate cancer cells; assay: DCFH dye oxidation kinetics (ROS, v0) in nuclei and cytoplasm of LNCaP cells; type: cell-based; conditions: metribolone treatment over 24-96 h
Protocol: Standardization of cell-based fluorescence quantitation assay. We standardized the BD Pathway Bioimager quantitation of cellular ROS using a well-established cell culture based system. […] The ROS levels in these published studies were determined by monitoring DCFH dye oxidation, where DCFH is oxidized to DCF by ROS to yield quantifiable green fluorescence. The DCF fluorescence in live cell cytoplasm and nuclei (FIG. 2B) were quantitated by using the Hoechst 33342 dye staining of the cell nuclei (blue fluorescence in FIG. 2) that allows for auto focusing, positioning and mapping the contour of the cell nuclei and cytoplasms.
(1) Kinetics of DCF dye oxidation: Oxidation of DCFH to fluorescence DCF dye is a relatively fast reaction that is usually complete within 30-60 minutes. […] Curve fitting of the first 20-30 min of the plot of DCF fluorescence intensity vs. time with a pseudo-first order reaction kinetics yields the initial velocity (v0) values of the reaction (see below), which is directly proportional to the ROS concentration at the time point of DCF dye addition.
(1) Real-time kinetics of DCF dye oxidation in cell nuclei and cytoplasm: DCF dye oxidation kinetics in the nuclei and cytoplasm of LNCaP cells were determined using the BD Bioimager software coupled with Sigmaplot curve-fitting program. […]

LNCaP cells [3] = assay: DCF dye oxidation assay of androgen (R1881) induced ROS production; type: cell-based, human; conditions: cells (si22) transfected with vector transcribing siRNA against SSAT
Protocol: SSAT induction is a major source of androgen induced oxidative stress. In order to confirm that SSAT was the major source of androgen induced oxidative stress, we developed and used a stable LNCaP cell clone transfected with plasmid transcribing siRNA designed to silence SSAT mRNA expression. The SSAT mRNA level in these cells was determined by qRT-PCR method. In the cells transfected only with the vector, the SSAT mRNA level increased by over 8-fold after 96 h treatment with R1881, whereas in cells stably transfected with SSAT siRNA (si22), R1881 under similar treatment condition induced less than 2-fold increase in the SSAT transcript, showing over 75% silencing of SSAT mRNA expression. The ROS production induced by androgen analog R1881 in these cells was measured by DCF dye oxidation assay. The green fluorescence of oxidized DCF in androgen treated LNCaP cells was shown. The effect of SSAT silencing on the R1881 induced ROS production measured by DCF assay was also shown. The ratio of DCF fluorescence (green):DNA fluorescence (blue) for each of the treated well of a 96 well plate normalized to that of the average of control untreated wells represents the ROS level per cell relative to that in control untreated cells. The data points are the mean of numbers obtained from repeat experiments using thirty identically treated wells.
Each data point was an average of readings from six wells repeated twice in triplicates. […] The ROS levels of all CPC-200 pretreated cells were normalized to the ROS levels of cells treated with CPC-200 alone.

[4] = system: LNCaP human prostate cancer cells; conditions: 1 nM metribolone, 96 h; cited from earlier work
Androgen Receptor (AR) = Androgen Receptor (AR) (Homo sapiens, UniProt P10275, T878A); conditions: LNCaP cells; for fluorescence score, geometric mean / fluorescence score, mean after logarithmic transformation: 40 cells
Sequence of Androgen Receptor (AR) (P10275 whole entry T878A): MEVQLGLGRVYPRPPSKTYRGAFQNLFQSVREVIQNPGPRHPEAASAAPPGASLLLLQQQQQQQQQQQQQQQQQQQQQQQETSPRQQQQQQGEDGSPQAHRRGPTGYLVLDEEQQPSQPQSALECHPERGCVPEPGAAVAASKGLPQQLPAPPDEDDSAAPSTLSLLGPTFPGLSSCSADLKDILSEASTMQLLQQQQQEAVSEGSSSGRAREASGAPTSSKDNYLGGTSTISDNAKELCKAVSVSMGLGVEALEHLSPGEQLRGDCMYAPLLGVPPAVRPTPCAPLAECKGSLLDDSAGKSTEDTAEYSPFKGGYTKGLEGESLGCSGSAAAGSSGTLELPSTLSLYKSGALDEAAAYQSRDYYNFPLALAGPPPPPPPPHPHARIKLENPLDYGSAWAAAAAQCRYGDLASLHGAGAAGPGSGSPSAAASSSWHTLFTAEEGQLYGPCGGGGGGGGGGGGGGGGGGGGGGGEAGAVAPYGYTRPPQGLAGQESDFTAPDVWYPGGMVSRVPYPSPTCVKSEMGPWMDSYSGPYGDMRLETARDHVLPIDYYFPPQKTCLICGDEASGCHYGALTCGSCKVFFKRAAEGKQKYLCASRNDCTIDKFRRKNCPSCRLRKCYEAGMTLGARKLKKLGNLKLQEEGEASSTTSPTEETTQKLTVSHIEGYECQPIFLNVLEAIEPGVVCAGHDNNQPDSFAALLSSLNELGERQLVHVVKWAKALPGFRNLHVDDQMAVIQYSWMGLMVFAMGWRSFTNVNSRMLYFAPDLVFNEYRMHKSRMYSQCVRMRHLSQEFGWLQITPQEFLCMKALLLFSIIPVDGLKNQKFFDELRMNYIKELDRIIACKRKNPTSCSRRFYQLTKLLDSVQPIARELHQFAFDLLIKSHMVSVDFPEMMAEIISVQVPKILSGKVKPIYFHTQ
Protocol: The quantitation of subcellular fluorescence was further validated using a known system—nuclear translocation of AR in LNCaP cells treated with androgen (dihydrotestosterone) or androgen analog metribolone. […] LNCaP cells in charcoal stripped androgen depleted medium are grown for 6 days in the presence of low (0.05 nM) metribolone and 4 more days in the presence of high (1 nM) metribolone. […] For objective analysis of the response, a quantitation of the IHC fluorescence is necessary. The Bioimager was used to quantitate the IHC fluorescence of AR in the nuclei and in the cytoplasm of about 40 cells from four random areas of the microscopic field from each plate.

LNCaP cells [5] = assay: HPLC quantitation of polyamine and acetyl polyamine levels in LNCaP cells; type: cell-based, human; conditions: R1881 1 nM, 96 h
Excerpt: This method is routinely used in the analytical laboratory of the core facility of Cancer Centers and was accessible for quantitative assays necessary for the PK/PD determinations. […] Each data point was an average of two determinations where sample cell pellets were collected from three independent experiments.

prostate cancer cells = conditions: androgen-dependent and androgen-independent prostate cancer cells; cited from earlier work

C[C@]1(O)CC[C@H]2[C@@H]3CCC4=CC(=O)CCC4=C3C=C[C@@]21C [metribolone, 17β-17-Hydroxy-17-methyl-estra-4,9,11-trien-3-one]
increase in the SSAT transcript (SSAT; LNCaP cells stably transfected with SSAT siRNA (si22), 96 h R1881): less than 2 fold | increase in SSAT mRNA level (SSAT; LNCaP cells transfected only with the vector, 96 h R1881): over 8 fold | SSAT over-expression, dependence on R1881 concentration (SSAT; LNCaP cells, 1 nM vs 0.05 nM R1881): over-expressed only in cells treated with 1 nM R1881 | increase in SSAT mRNA level (SSAT; R1881 treated LNCaP cells vs untreated control cells): > 30 fold | SSAT gene expression (microarray) [1]: highly overexpressed gene | nuclear and cytoplasmic ROS levels (v0 of DCFH dye oxidation) [2]: increase over time | R1881 induced ROS levels (LNCaP cells [3]): only a minor increase in ROS levels | ROS production (DCFH dye oxidation) [4]: high levels of ROS | fluorescence score, geometric mean (Androgen Receptor (AR); 0.05 nM metribolone (control)): 329 | fluorescence score, mean after logarithmic transformation (Androgen Receptor (AR); 0.05 nM metribolone (control)): 5.80 | increase in the ratio of nuclear fluorescence intensities over the cytoplasmic intensities (AR IHC) (Androgen Receptor (AR); 1 nM metribolone compared to 0.05 nM metribolone): 1.5 fold | fluorescence score, geometric mean (Androgen Receptor (AR); 1 nM metribolone): 605 | fluorescence score, mean after logarithmic transformation (Androgen Receptor (AR); 1 nM metribolone): 6.41 | cells responding dramatically (nuclear localization of AR) (Androgen Receptor (AR); high (1 nM) metribolone): 20% | putrescine, spermidine, N-acetyl spermidine and N-acetyl spermine levels (LNCaP cells [5]): increased | spermine level (LNCaP cells [5]): markedly decreased spermine level

Cc1c(C)c2c(c(C)c1O)CCC(C)(C)O2 [PMCoI, 2,2,5,7,8 pentamethyl 6-chromanol]
activities against prostate cancer cells (prostate cancer cells): considerable cytotoxic, anti-proliferative and also anti-androgenic activities
